Experiment: xn = mol fraction of the nth substance listed
Conditions: 100 kPa

## O=C1CCCO1 + CCCC[n+]1ccn(C)c1.O=S(=O)([N-]S(=O)(=O)C(F)(F)F)C(F)(F)F
293.15 K, x1 = 0.1005
  electrical conductivity: 0.347 S/m
  viscosity: 46.39 mPa·s
293.15 K, x1 = 0.1984
  electrical conductivity: 0.388 S/m
  viscosity: 37.16 mPa·s
293.15 K, x1 = 0.4001
  electrical conductivity: 0.519 S/m
  viscosity: 23.42 mPa·s
293.15 K, x1 = 0.5021
  electrical conductivity: 0.637 S/m
  viscosity: 17.37 mPa·s
293.15 K, x1 = 0.5979
  electrical conductivity: 0.797 S/m
  viscosity: 12.26 mPa·s
293.15 K, x1 = 0.7021
  electrical conductivity: 1.13 S/m
  viscosity: 8.54 mPa·s
293.15 K, x1 = 0.7999
  electrical conductivity: 1.34 S/m
  viscosity: 5.53 mPa·s
293.15 K, x1 = 0.8995
  electrical conductivity: 1.34 S/m
  viscosity: 3.49 mPa·s
293.15 K, x1 = 0.95
  electrical conductivity: 1.04 S/m
293.15 K, x1 = 1
  electrical conductivity: 0.001 S/m
  viscosity: 1.92 mPa·s
298.15 K, x1 = 0.1005
  electrical conductivity: 0.428 S/m
  viscosity: 38.33 mPa·s
298.15 K, x1 = 0.1984
  electrical conductivity: 0.469 S/m
  viscosity: 30.92 mPa·s
298.15 K, x1 = 0.2992
  electrical conductivity: 0.546 S/m
  viscosity: 24.97 mPa·s
298.15 K, x1 = 0.4001
  electrical conductivity: 0.618 S/m
  viscosity: 19.75 mPa·s
298.15 K, x1 = 0.5979
  electrical conductivity: 0.928 S/m
  viscosity: 10.7 mPa·s
298.15 K, x1 = 0.7021
  electrical conductivity: 1.29 S/m
  viscosity: 7.58 mPa·s
298.15 K, x1 = 0.7999
  electrical conductivity: 1.5 S/m
  viscosity: 5.04 mPa·s
298.15 K, x1 = 0.8496
  electrical conductivity: 1.53 S/m
298.15 K, x1 = 0.8995
  electrical conductivity: 1.48 S/m
  viscosity: 3.26 mPa·s
298.15 K, x1 = 0.95
  electrical conductivity: 1.14 S/m
298.15 K, x1 = 1
  electrical conductivity: 0.001 S/m
  viscosity: 1.73 mPa·s
298.15 K, x2 = 0.0151
  electrical conductivity: 0.444 S/m
303.15 K, x1 = 0.1005
  electrical conductivity: 0.501 S/m
  viscosity: 31.8 mPa·s
303.15 K, x1 = 0.1984
  electrical conductivity: 0.552 S/m
  viscosity: 25.69 mPa·s
303.15 K, x1 = 0.4001
  electrical conductivity: 0.72 S/m
  viscosity: 16.68 mPa·s
303.15 K, x1 = 0.5021
  electrical conductivity: 0.853 S/m
  viscosity: 12.76 mPa·s
303.15 K, x1 = 0.5979
  electrical conductivity: 1.05 S/m
  viscosity: 9.32 mPa·s
303.15 K, x1 = 0.7021
  electrical conductivity: 1.43 S/m
  viscosity: 6.67 mPa·s
303.15 K, x1 = 0.7999
  electrical conductivity: 1.65 S/m
  viscosity: 4.55 mPa·s
303.15 K, x1 = 0.8496
  electrical conductivity: 1.69 S/m
303.15 K, x1 = 0.8995
  electrical conductivity: 1.61 S/m
  viscosity: 2.97 mPa·s
303.15 K, x1 = 0.95
  electrical conductivity: 1.23 S/m
303.15 K, x1 = 1
  electrical conductivity: 0.001 S/m
  viscosity: 1.63 mPa·s
303.15 K, x2 = 0.0151
  electrical conductivity: 0.477 S/m
308.15 K, x1 = 0.1005
  electrical conductivity: 0.586 S/m
  viscosity: 26.88 mPa·s
308.15 K, x1 = 0.1984
  electrical conductivity: 0.642 S/m
  viscosity: 21.98 mPa·s
308.15 K, x1 = 0.2992
  electrical conductivity: 0.745 S/m
  viscosity: 17.9 mPa·s
308.15 K, x1 = 0.4001
  electrical conductivity: 0.825 S/m
  viscosity: 14.35 mPa·s
308.15 K, x1 = 0.5021
  electrical conductivity: 0.981 S/m
  viscosity: 11.04 mPa·s
308.15 K, x1 = 0.7021
  electrical conductivity: 1.63 S/m
  viscosity: 6 mPa·s
308.15 K, x1 = 0.8995
  electrical conductivity: 1.75 S/m
  viscosity: 2.76 mPa·s
308.15 K, x1 = 0.95
  electrical conductivity: 1.32 S/m
308.15 K, x2 = 0.0151
  electrical conductivity: 0.509 S/m
313.15 K, x1 = 0.1005
  electrical conductivity: 0.68 S/m
  viscosity: 22.69 mPa·s
313.15 K, x1 = 0.2992
  electrical conductivity: 0.854 S/m
  viscosity: 15.26 mPa·s
313.15 K, x1 = 0.4001
  electrical conductivity: 1 S/m
  viscosity: 12.32 mPa·s
313.15 K, x1 = 0.5021
  electrical conductivity: 1.2 S/m
  viscosity: 9.62 mPa·s
313.15 K, x1 = 0.7021
  electrical conductivity: 1.81 S/m
  viscosity: 5.41 mPa·s
313.15 K, x1 = 0.7999
  electrical conductivity: 1.98 S/m
  viscosity: 3.78 mPa·s
313.15 K, x1 = 0.8496
  electrical conductivity: 2.01 S/m
313.15 K, x1 = 0.8995
  electrical conductivity: 1.88 S/m
  viscosity: 2.55 mPa·s
318.15 K, x1 = 0.1005
  electrical conductivity: 0.768 S/m
  viscosity: 19.31 mPa·s
318.15 K, x1 = 0.1984
  electrical conductivity: 0.85 S/m
  viscosity: 15.86 mPa·s
318.15 K, x1 = 0.2992
  electrical conductivity: 0.965 S/m
  viscosity: 13.24 mPa·s
318.15 K, x1 = 0.4001
  electrical conductivity: 1.19 S/m
  viscosity: 10.82 mPa·s
318.15 K, x1 = 0.5021
  electrical conductivity: 1.4 S/m
  viscosity: 8.52 mPa·s
318.15 K, x1 = 0.5979
  electrical conductivity: 1.64 S/m
  viscosity: 6.49 mPa·s
318.15 K, x1 = 0.7021
  electrical conductivity: 1.99 S/m
  viscosity: 4.84 mPa·s
318.15 K, x2 = 0.0151
  electrical conductivity: 0.576 S/m
323.15 K, x1 = 0.1005
  electrical conductivity: 0.898 S/m
  viscosity: 16.54 mPa·s
323.15 K, x1 = 0.1984
  electrical conductivity: 1.03 S/m
  viscosity: 13.86 mPa·s
323.15 K, x1 = 0.2992
  electrical conductivity: 1.24 S/m
  viscosity: 11.57 mPa·s
323.15 K, x1 = 0.4001
  electrical conductivity: 1.46 S/m
  viscosity: 9.47 mPa·s
323.15 K, x1 = 0.5021
  electrical conductivity: 1.68 S/m
  viscosity: 7.51 mPa·s
323.15 K, x1 = 0.5979
  electrical conductivity: 1.91 S/m
  viscosity: 5.83 mPa·s
323.15 K, x1 = 0.7021
  electrical conductivity: 2.21 S/m
  viscosity: 4.44 mPa·s
323.15 K, x1 = 0.8496
  electrical conductivity: 2.34 S/m
323.15 K, x1 = 0.8995
  electrical conductivity: 2.17 S/m
  viscosity: 2.18 mPa·s
323.15 K, x1 = 0.95
  electrical conductivity: 1.62 S/m
323.15 K, x2 = 0.0151
  electrical conductivity: 0.609 S/m

## CCCC[n+]1ccn(C)c1.O=S(=O)([N-]S(=O)(=O)C(F)(F)F)C(F)(F)F + O=C1CCCCO1
293.15 K, x1 = 1
  electrical conductivity: 0.337 S/m
303.15 K, x1 = 1
  electrical conductivity: 0.472 S/m
308.15 K, x1 = 1
  electrical conductivity: 0.552 S/m
313.15 K, x1 = 1
  electrical conductivity: 0.64 S/m
323.15 K, x1 = 1
  electrical conductivity: 0.835 S/m

## CCCCCCCCn1cc[n+](C)c1.O=S(=O)([N-]S(=O)(=O)C(F)(F)F)C(F)(F)F + O=C1CCCO1
293.15 K, x2 = 0
  electrical conductivity: 0.106 S/m
293.15 K, x2 = 0.0997
  electrical conductivity: 0.126 S/m
293.15 K, x2 = 0.2993
  electrical conductivity: 0.184 S/m
293.15 K, x2 = 0.6963
  electrical conductivity: 0.601 S/m
293.15 K, x2 = 0.7994
  electrical conductivity: 0.845 S/m
293.15 K, x2 = 0.8503
  electrical conductivity: 0.953 S/m
293.15 K, x2 = 0.8999
  electrical conductivity: 0.984 S/m
293.15 K, x2 = 0.9514
  electrical conductivity: 0.653 S/m
298.15 K, x2 = 0.0997
  electrical conductivity: 0.161 S/m
298.15 K, x2 = 0.2993
  electrical conductivity: 0.235 S/m
298.15 K, x2 = 0.5048
  electrical conductivity: 0.396 S/m
298.15 K, x2 = 0.7994
  electrical conductivity: 0.955 S/m
298.15 K, x2 = 0.8503
  electrical conductivity: 1.06 S/m
298.15 K, x2 = 0.8999
  electrical conductivity: 1.07 S/m
298.15 K, x2 = 0.9514
  electrical conductivity: 0.718 S/m
303.15 K, x2 = 0
  electrical conductivity: 0.17 S/m
303.15 K, x2 = 0.0997
  electrical conductivity: 0.199 S/m
303.15 K, x2 = 0.2993
  electrical conductivity: 0.28 S/m
303.15 K, x2 = 0.5048
  electrical conductivity: 0.474 S/m
303.15 K, x2 = 0.6963
  electrical conductivity: 0.83 S/m
303.15 K, x2 = 0.7994
  electrical conductivity: 1.07 S/m
303.15 K, x2 = 0.8503
  electrical conductivity: 1.17 S/m
303.15 K, x2 = 0.8999
  electrical conductivity: 1.18 S/m
308.15 K, x2 = 0.0997
  electrical conductivity: 0.24 S/m
308.15 K, x2 = 0.2993
  electrical conductivity: 0.342 S/m
308.15 K, x2 = 0.5048
  electrical conductivity: 0.553 S/m
308.15 K, x2 = 0.6963
  electrical conductivity: 0.94 S/m
308.15 K, x2 = 0.7994
  electrical conductivity: 1.21 S/m
308.15 K, x2 = 0.8503
  electrical conductivity: 1.29 S/m
308.15 K, x2 = 0.8999
  electrical conductivity: 1.29 S/m
308.15 K, x2 = 0.9514
  electrical conductivity: 0.853 S/m
313.15 K, x2 = 0
  electrical conductivity: 0.254 S/m
313.15 K, x2 = 0.0997
  electrical conductivity: 0.285 S/m
313.15 K, x2 = 0.5048
  electrical conductivity: 0.636 S/m
313.15 K, x2 = 0.6963
  electrical conductivity: 1.06 S/m
313.15 K, x2 = 0.7994
  electrical conductivity: 1.33 S/m
313.15 K, x2 = 0.8503
  electrical conductivity: 1.41 S/m
313.15 K, x2 = 0.8999
  electrical conductivity: 1.39 S/m
313.15 K, x2 = 0.9514
  electrical conductivity: 0.915 S/m
318.15 K, x2 = 0.2993
  electrical conductivity: 0.48 S/m
318.15 K, x2 = 0.5048
  electrical conductivity: 0.744 S/m
318.15 K, x2 = 0.6963
  electrical conductivity: 1.19 S/m
318.15 K, x2 = 0.7994
  electrical conductivity: 1.47 S/m
318.15 K, x2 = 0.8503
  electrical conductivity: 1.53 S/m
318.15 K, x2 = 0.9514
  electrical conductivity: 0.976 S/m
323.15 K, x2 = 0
  electrical conductivity: 0.361 S/m
323.15 K, x2 = 0.0997
  electrical conductivity: 0.397 S/m
323.15 K, x2 = 0.5048
  electrical conductivity: 0.817 S/m
323.15 K, x2 = 0.6963
  electrical conductivity: 1.33 S/m
323.15 K, x2 = 0.7994
  electrical conductivity: 1.56 S/m
323.15 K, x2 = 0.8503
  electrical conductivity: 1.64 S/m
323.15 K, x2 = 0.8999
  electrical conductivity: 1.59 S/m

From a compilation of properties of binary mixtures (doi:10.2298/jsc190413047v)
